In publication PMC10384675, “Novel Thiazolidine-2,4-dione-trimethoxybenzene-thiazole Hybrids as Human Topoisomerases Inhibitors” (Pharmaceuticals, 2023):

What was measured:
[1] = test system: MDA-MB-231 breast cancer cells; assay: MTT cell viability assay, MDA-MB-231; assay type: cell-based; details: Homo sapiens, 72 h
Protocol: (§1) All of the synthesized compounds (7a–f) were studied to test their anticancer activity toward the estrogen receptor-positive (ER+) MCF-7 and the triple-negative MDA-MB-231 breast cancer cells (ER-, PR- and HER-2/Neu not overexpressed) and A2058 melanoma cells. Cells were incubated for 72 h with different concentrations of the compounds, and then the viability was checked by the MTT assay. […] Moreover, we checked the cytotoxicity of all of the synthesized compounds against the human MCF-10A non-malignant breast epithelial cells and mouse BALB/3T3 embryonic fibroblasts, in order to evaluate their selectivity on cancer cells.
(§2) The used cell lines (breast cancer cell lines MCF-7 and MDA-MB-231, melanoma cell line A2058 and human mammary epithelial cell line MCF-10A) were obtained from American Type Culture Collection (ATCC, Manassas, VA, USA) and cultured as already reported. The mouse BALB/3T3 embryonic fibroblasts were also purchased from American Type Culture Collection (ATCC, Manassas, VA, USA) and cultured in DMEM high glucose supplemented with 10% bovine calf serum (BCS) and 100 U mL^−1 penicillin/streptomycin.
(§3) MTT assay (Sigma Aldrich (St. Louis, MO, USA)) was performed for evaluating the in vitro anticancer activities of the compounds, as previously indicated. Different concentrations (0.1, 1, 10, 25, 50, and 100 μM) of the compounds were employed, with a 72 h endpoint. IC50 values were obtained from the percent (%) of control using GraphPad Prism 9 (GraphPad Software, La Jolla, CA, USA).

A2058 melanoma cells = assay: MTT cell viability assay, A2058; assay type: cell-based; details: Homo sapiens, 72 h
Protocol: as §1, §2, §3

[2] = test system: mouse BALB/3T3 embryonic fibroblasts; assay: MTT cytotoxicity assay, BALB/3T3; assay type: cell-based; details: 72 h, normal cells
Protocol: as §1, §2, §3

[3] = test system: MCF-7 breast cancer cells; assay: MTT cell viability assay, MCF-7; assay type: cell-based, human; details: Homo sapiens, MCF7; MTT, 72 h
Protocol: as §1, §2, §3

[4] = test system: human MCF-10A non-malignant breast epithelial cells; assay: MTT cytotoxicity assay, MCF-10A; assay type: cell-based; details: 72 h, normal cells
Protocol: as §1, §2, §3

hTopo II = molecular target: T1, hTopo II (Homo sapiens, UniProt P11388); assay: hTopo II decatenation assay; assay type: biochemical; design: key to Topoisomerase Inhibition hTopo II: (+) inhibition; (−) no inhibition; (+/−) partial inhibition; details: for hTopo II activity inhibition (in words): kDNA
T1 construct: purchased TopoGEN, Port Orange, FL
T1 sequence (P11388 whole entry): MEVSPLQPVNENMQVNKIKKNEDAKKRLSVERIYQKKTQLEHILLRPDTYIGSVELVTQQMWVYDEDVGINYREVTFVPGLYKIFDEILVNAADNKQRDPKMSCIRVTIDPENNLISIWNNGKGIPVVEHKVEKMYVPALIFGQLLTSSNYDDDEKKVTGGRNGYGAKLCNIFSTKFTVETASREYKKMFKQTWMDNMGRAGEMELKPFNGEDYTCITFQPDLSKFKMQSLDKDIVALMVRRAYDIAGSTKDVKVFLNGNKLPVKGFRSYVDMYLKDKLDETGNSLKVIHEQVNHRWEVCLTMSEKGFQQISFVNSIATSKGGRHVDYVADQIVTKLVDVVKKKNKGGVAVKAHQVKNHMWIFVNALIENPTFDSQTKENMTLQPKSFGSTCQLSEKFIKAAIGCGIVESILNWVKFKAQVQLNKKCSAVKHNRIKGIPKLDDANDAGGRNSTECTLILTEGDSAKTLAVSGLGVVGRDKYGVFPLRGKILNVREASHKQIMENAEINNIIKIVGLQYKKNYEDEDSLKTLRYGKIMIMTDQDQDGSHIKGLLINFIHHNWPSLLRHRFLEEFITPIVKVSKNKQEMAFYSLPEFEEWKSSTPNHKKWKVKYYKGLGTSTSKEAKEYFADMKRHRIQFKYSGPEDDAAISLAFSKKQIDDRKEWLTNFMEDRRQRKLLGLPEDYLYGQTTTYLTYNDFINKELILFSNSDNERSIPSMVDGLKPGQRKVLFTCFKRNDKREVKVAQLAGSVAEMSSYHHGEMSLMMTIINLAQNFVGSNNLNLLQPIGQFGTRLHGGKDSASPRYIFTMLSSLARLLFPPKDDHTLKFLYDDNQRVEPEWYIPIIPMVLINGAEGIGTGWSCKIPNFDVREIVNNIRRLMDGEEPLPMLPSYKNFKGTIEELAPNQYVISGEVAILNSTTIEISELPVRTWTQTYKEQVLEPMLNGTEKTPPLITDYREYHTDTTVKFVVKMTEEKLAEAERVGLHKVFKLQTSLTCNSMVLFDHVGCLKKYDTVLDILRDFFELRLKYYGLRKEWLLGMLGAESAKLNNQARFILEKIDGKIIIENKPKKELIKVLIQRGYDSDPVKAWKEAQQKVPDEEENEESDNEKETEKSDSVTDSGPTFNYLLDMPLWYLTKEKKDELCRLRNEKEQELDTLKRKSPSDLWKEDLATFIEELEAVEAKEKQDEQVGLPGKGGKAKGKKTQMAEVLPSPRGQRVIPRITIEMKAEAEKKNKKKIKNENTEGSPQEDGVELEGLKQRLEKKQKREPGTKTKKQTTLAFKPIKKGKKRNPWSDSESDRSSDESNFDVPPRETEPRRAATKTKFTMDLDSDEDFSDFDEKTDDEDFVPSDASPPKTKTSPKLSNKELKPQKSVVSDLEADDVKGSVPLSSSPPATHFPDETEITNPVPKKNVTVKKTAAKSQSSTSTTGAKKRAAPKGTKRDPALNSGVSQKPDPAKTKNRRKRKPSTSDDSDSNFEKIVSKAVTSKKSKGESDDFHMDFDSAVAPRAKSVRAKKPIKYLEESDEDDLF
Protocol: The linear kDNA (Figure 4a,b, lanes A), decatenated kDNA (Figure 4a,b, lanes B) and the catenated circles of kDNA (Figure 4a,b, lanes C) were used as markers. A parallel experiment was performed using ellipticine as reference molecule.
(§4) hTopo I relaxation assays were performed by incubating the substrate (supercoiled pHOT1) with the recombinant hTopo I (TopoGEN, Port Orange, FL, USA) and compounds, as indicated in the supplier protocol (TopoGEN, Port Orange, FL, USA), with some revisions. hTopo II decatenation assays were conducted by incubating the kinetoplast DNA substrate (kDNA) with the hTopo II (TopoGEN, Port Orange, FL) and studied compounds, as indicated in the supplier procedures (TopoGEN, Port Orange, FL, USA), with some changes as in [80].
Figure 4 hTopo II decatenation assay. […] The same experiment was performed using ellipticine (c). Lane 1, decatenated kDNA marker; lane 2, linear kDNA marker; lane 3, CTRL (DMSO), lanes 4–5, ellipticine 10 and 50 µM, respectively.

hTopo I = molecular target: T2, hTopo I (Homo sapiens, UniProt P11387); assay: hTopo I relaxation assay; assay type: biochemical; design: key to Topoisomerase Inhibition hTopo I: (+) inhibition; (−) no inhibition; (+/−) partial inhibition; details: for hTopo I activity inhibition (in words): supercoiled pHOT1
T2 construct: purchased TopoGEN, Port Orange, FL, USA
T2 sequence (P11387 1-765): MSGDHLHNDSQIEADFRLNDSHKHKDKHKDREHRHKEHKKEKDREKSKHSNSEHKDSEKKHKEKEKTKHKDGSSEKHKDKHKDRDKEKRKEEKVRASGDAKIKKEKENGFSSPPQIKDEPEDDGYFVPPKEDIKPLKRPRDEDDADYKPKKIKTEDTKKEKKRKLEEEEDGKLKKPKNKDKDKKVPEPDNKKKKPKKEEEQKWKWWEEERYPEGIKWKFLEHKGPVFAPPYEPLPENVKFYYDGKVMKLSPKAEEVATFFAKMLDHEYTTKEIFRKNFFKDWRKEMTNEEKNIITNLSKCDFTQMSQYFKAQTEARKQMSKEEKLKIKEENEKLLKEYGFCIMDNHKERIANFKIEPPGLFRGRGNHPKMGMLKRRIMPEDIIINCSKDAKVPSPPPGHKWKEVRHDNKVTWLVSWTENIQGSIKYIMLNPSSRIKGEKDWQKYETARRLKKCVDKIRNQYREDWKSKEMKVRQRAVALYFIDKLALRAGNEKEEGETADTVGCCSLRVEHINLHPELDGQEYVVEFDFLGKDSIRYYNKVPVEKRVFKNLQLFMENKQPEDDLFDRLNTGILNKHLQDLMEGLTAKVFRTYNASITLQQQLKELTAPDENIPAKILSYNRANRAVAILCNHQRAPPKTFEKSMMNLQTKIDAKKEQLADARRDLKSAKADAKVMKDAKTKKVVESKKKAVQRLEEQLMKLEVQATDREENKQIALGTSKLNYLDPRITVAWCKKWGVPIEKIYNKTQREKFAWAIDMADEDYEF
Description: Thiazoles and their derivatives are extensively recognized as chemical nuclei of great interest for producing molecules with multiple biological properties. In particular, several compounds bearing these heterocycles were studied for their capability to interfere with DNA topoisomerases (Topos), ubiquitous enzymes essential in several key cellular processes. In recent years, these enzymes have become popular targets in cancer therapy; indeed, the topoisomerase inhibitors can induce damage to genome integrity. Consequently, the inhibition of topoisomerases leads to cell death by apoptosis and, thus, is fatal. Thus, we carried out two specific tests in vitro for both of the Topos, namely the hTopo I relaxation and the hTopo II decatenation assays. For the hTopo I relaxation assay, we exposed the enzyme to the most interesting compounds, 7b–7e, at the final concentration of 10 µM for 1 h at 37 °C, using as substrate the supercoiled pHOT1 (see Section 4 Materials and Methods for more details). […] Contrarily, in the CTRL lane, where the hTopo I was exposed to only vehicle (DMSO), several bands due to pHOT1 DNA cleavage were present (Figure 3, lane C). […] In Figure 3, panel B, the hTopo I inhibition results using ellipticine, as reference molecule are shown. […] An electrophoretic mobility shift of the pHOT1 DNA was also noticeable, due to the intercalating properties of ellipticine.
as §4
Figure 3 hTopo I relaxation assay. Plasmid pHOT1, used as substrate, was incubated with hTopo I with or without the studied compounds 7b–7e (10 µM concentration), panel (A), and with or without ellipticine (10 and 50 µM concentration), panel (B). Lane A, relaxed DNA marker; lane B, pHOT1 supercoiled DNA, lane C, CTRL (DMSO), lane D–G, compounds 7b–7e 10 µM, respectively. Lane 1, pHOT1 supercoiled DNA; lane 2, CTRL (DMSO), lanes 3–4, ellipticine 10 and 50 µM, respectively.

SMILES | IC50 [1] [µM] | IC50 (A2058 melanoma cells) [µM] | IC50 [3] [µM] | melting point [°C] | Topoisomerase Inhibition hTopo II (hTopo II; 10 µM) | Topoisomerase Inhibition hTopo II (hTopo II; 50 µM) | Topoisomerase Inhibition hTopo I (hTopo I; 10 µM) | IC50 [2] [µM] | IC50 [4] [µM] | hTopo II activity inhibition (in words) (hTopo II; 50 µM) | hTopo I activity inhibition (in words) (hTopo I; 10 µM, 1 h, 37 °C) | Topoisomerase Inhibition hTopo I (hTopo I; 50 µM) | hTopo I activity inhibition (in words) (hTopo I; 50 µM)
COc1cc(/C=C2\SC(=O)N(CC(=O)Nc3nc(-c4ccc(Cl)cc4)cs3)C2=O)cc(OC)c1OC [compound 7d, (Z)-2-(5-(3,4,5-Trimethoxybenzylidene)thiazolidin-2,4-dion-3-yl)-N-(4-(4-chlorophenyl)thiazol-2-yl)acetamide] | 33.4 ± 1 | 6.4 ± 0.9 | 34.1 ± 0.7 |  | − | + | − | 36.1 ± 1 | > 100 |  | not able to inhibit the relaxation activity |  | 
COc1cc(/C=C2\SC(=O)N(CC(=O)Nc3nc4ccccc4s3)C2=O)cc(OC)c1OC [compound 7f, (Z)-2-(5-(3,4,5-Trimethoxybenzylidene)thiazolidin-2,4-dion-3-yl)-N-(benzo[d]thiazol-2-yl)acetamide] | 50.5 ± 0.8 | 24.6 ± 1.1 | 17.4 ± 1.1 |  | − | + | + | > 100 | > 100 |  |  |  | 
Cc1c2ccncc2c(C)c2c1[nH]c1ccccc12 [ellipticine, reference compound] | 1.73 ± 0.4 | 1.33 ± 0.9 | 1.15 ± 0.5 |  | +/− | + | + | 0.97 ± 0.1 | 1.09 ± 0.1 | totally block | able to block the hTopo I activity | + | able to block the hTopo I activity

Further compounds by falling IC50 [1], results first:

IC50 [1] [µM] | IC50 (A2058 melanoma cells) [µM] | IC50 [3] [µM] | melting point [°C] | Topoisomerase Inhibition hTopo II (hTopo II; 10 µM) | Topoisomerase Inhibition hTopo II (hTopo II; 50 µM) | Topoisomerase Inhibition hTopo I (hTopo I; 10 µM) | SMILES | IC50 [2] [µM] | IC50 [4] [µM] | hTopo II activity inhibition (in words) (hTopo II; 50 µM) | hTopo I activity inhibition (in words) (hTopo I; 10 µM, 1 h, 37 °C) | Topoisomerase Inhibition hTopo I (hTopo I; 50 µM) | hTopo I activity inhibition (in words) (hTopo I; 50 µM)
32.8 ± 0.6 | 4.8 ± 1 | 19.5 ± 0.6 |  | − | + | − | COc1cc(/C=C2\SC(=O)N(CC(=O)Nc3nc(-c4ccc(C)cc4)cs3)C2=O)cc(OC)c1OC [compound 7c, (Z)-2-(5-(3,4,5-Trimethoxybenzylidene)thiazolidin-2,4-dion-3-yl)-N-(4-(4-methylphenyl)thiazol-2-yl)acetamide] | > 100 | 46.4 ± 1.1 |  | not able to inhibit the relaxation activity |  | 
27.5 ± 0.9 | > 100 | > 100 | 245 to 247 |  |  |  | COc1cc(/C=C2\SC(=O)N(CC(=O)Nc3nccs3)C2=O)cc(OC)c1OC [compound 7a, (Z)-2-(5-(3,4,5-Trimethoxybenzylidene)thiazolidin-2,4-dion-3-yl)-N-(thiazol-2-yl)acetamide] | 89.2 ± 1.1 | > 100 |  |  |  | 
17.9 ± 1.1 | 3.5 ± 1.1 | 8.5 ± 1.2 |  | − | − | − | COc1cc(/C=C2\SC(=O)N(CC(=O)Nc3nc(-c4ccccc4)cs3)C2=O)cc(OC)c1OC [compound 7b, (Z)-2-(5-(3,4,5-Trimethoxybenzylidene)thiazolidin-2,4-dion-3-yl)-N-(4-phenylthiazol-2-yl)acetamide] | > 100 | > 100 | unable to inhibit the hTopo II activity | not able to inhibit the relaxation activity |  | 
